One experiment concerns pdia4^−/−lepr^db/db mice. Put plainly: Postprandial blood glucose in treated pdia4-/- lepr db/db mice. Conditions: metformin 60 mg/kg BW, rosiglitazone 20 mg/kg BW or both, daily, FIG. 5A.
Another experiment concerns lepr^db/db mice. The experiment can be described thus: Postprandial blood glucose in treated lepr db/db mice. Conditions: cytopiloyne 2.5 mg/kg daily, FIG. 5C. The class given is in vivo, mouse. Here is the method: Their postprandial blood glucose was determined using a glucometer. […] Their postprandial blood glucose was determined using a glucometer.
To deplete pancreatic β cells in mice. […] Postprandial blood glucose was measured. […] Postprandial blood glucose was measured.

In the next experiment the target is T1, GST-Pdia4 (Homo sapiens, UniProt P13667).
T1 construct: made in house; host or cells: E. coli
T1 sequence (P13667 21-645): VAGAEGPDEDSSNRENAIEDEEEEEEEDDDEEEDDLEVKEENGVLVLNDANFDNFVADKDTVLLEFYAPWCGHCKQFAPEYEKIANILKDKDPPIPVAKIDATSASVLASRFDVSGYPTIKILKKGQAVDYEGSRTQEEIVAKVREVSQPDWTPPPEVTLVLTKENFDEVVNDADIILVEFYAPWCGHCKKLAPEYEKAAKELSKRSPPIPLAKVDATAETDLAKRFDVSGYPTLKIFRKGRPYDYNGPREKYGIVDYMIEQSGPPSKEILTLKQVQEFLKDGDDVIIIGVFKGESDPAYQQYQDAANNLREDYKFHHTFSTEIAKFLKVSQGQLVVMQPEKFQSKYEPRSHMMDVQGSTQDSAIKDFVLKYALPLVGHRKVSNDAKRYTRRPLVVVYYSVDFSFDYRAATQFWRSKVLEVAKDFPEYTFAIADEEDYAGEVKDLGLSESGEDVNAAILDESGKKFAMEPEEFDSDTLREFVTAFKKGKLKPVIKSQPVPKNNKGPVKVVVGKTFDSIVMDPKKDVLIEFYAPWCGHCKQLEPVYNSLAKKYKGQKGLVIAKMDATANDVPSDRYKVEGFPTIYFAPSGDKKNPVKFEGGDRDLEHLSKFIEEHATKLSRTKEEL
The experiment can be described thus: Bovine pancreatic trypsin inhibitor (BPTI)-based assay of disulfide isomerase activity. It counts as biochemical. The note with it: reduced BPTI as substrate, CP at different doses, FIG. 5B. The protocol:
Their postprandial blood glucose was determined using a glucometer. […] Their postprandial blood glucose was determined using a glucometer. Glutathione agarose bead-bound GST-Pdia4 (0.15 μg) were purified from E. coli bacteria.

Procedure for pdia4^−/−lepr^db/db mice: (A) lepr^db/db and pdia4^−/−lepr^db/db mice received a daily dose of PBS vehicle (Veh), metformin (MET, 60 mg/kg BW) and metformin (MET, 60 mg/kg BW)/rosiglitazone (ROS, 20 mg/kg BW). Their postprandial blood glucose was determined using a glucometer. […] (C) lepr^db/db mice received a daily dose of PBS vehicle (Veh), cytopiloyne (CP, 2.5 mg/kg), cytopiloyne (CP, 2.5 mg/kg)/metformin (MET, 60 mg/kg BW) and cytopiloyne (CP, 2.5 mg/kg)/metformin (MET, 60 mg/kg BW)/rosiglitazone (Ros, 20 mg/kg BW). Their postprandial blood glucose was determined using a glucometer.
To treat mice, PBS or a combination of cytopiloyne (2.5 mg/kg/day), metformin (60 mg/kg/day), and metformin (60 mg/kg/day) plus rosiglitazone (20 mg/kg/day) were fed for the indicated time. Postprandial blood glucose was measured. To treat pdia4^−/−lepr^db/db mice, PBS, metformin (60 mg/kg/day), and metformin (60 mg/kg/day) plus rosiglitazone (20 mg/kg/day) were fed for the indicated time. Postprandial blood glucose was measured.
After the overnight fasting, the mice had free access to food for 2 hr. fasting or postprandial blood glucose levels of the mice were measured using an Elite glucometer (Bayer).

Take `CN(C)C(=N)N=C(N)N` [metformin]: the “hyperglycemia (postprandial blood glucose)” value in the experiment with pdia4^−/−lepr^db/db mice is “normalize hyperglycemia”.
Take `CC#CC#CC#CC#CCCC(CO)O[C@@H]1O[C@H](CO)[C@@H](O)[C@H](O)[C@H]1O` (stereo partly shown) [cytopiloyne]: in the experiment with lepr^db/db mice, the postprandial blood glucose entry is recorded as “lower postprandial blood glucose”. The figures for the “enzymatic (disulfide isomerase) activity of Pdia4” value at GST-Pdia4 and at GST-Pdia4 (listed as Cytopiloyne) were “inhibited Pdia4 activity” and “suppress the enzymatic activity of Pdia4”, respectively.

The values are drawn from patent US10987369B2, “Pdia4 protein as a target for diagnosis, monitoring and treatment of diabetes” (ACADEMIA SINICA, priority 2014, dated 2021).
